{
  "source": "patent US10555987B2",
  "about": "“GHRH agonists for the treatment of ischemic disorders” (UNIVERSITY OF MIAMI, priority 2012, dated 2020)",
  "key": {"[1]": {"system": "myocardial infarction (Fisher-344 rats)", "assay": "Serial echocardiography after MI, compared to JI-38 (Example 15, Table 15)", "format": "in vivo, rat", "set-up": "key to LVEDD: Left Ventricular End Diastolic Diameter / LVESD: Left Ventricular End Systolic Diameter / VD: Ventricular Diastole / VS: Ventricular Systole / EF: Ejection Fraction / FS: Fraction Shortening: ↓: downward arrow denotes lower than JI-38; ↑: upward arrow denotes greater than JI-38; =denotes same as JI-38; ⬇⬇: double arrow denotes greater effect; ⬆⬆: double arrow denotes greater effect", "details": "in comparison to JI-38", "experimental": "Echocardiographic measurements were obtained at baseline, 2 days, 1, 2 and 4 weeks. Echocardiographic assessments were performed in anesthetized rats (2% isoflurane inhalation) using a Vevo-770 echocardiogram (Visual Sonics Inc., Toronto, Ontario, Canada) equipped with a 17.5-MHz transducer. Cardiac dimensions: LV end diastolic (LVEDD), end systolic (LVESD) diameters and fractional shortening (FS) were recorded from M-mode images using averaged measurements from 3 to 5 consecutive cardiac cycles according to the American Society of Echocardiography. Ejection fraction (EF) was calculated from bi-dimensional long-axis parasternal views taken through the infarcted area. All images were analyzed using Vevo 770 3.0.0 software (Visual Sonics Inc., Toronto, Ontario, Canada).\n(§1) Myocardial infarction (MI) was induced by permanent ligation of the left coronary artery in female 6-month-old Fisher-344 rats. Following experimental myocardial infarction (MI), rats were randomly assigned to receive either placebo, JI-38, or one of the following new analogs of GHRH: MR-30 l(P-21301), MR-303(P-21303), MR-356(P-20356), MR-502(25502), MR-350(P-20350), MR-36 l(P-20361), MR-367(P-20367), MR-403(P-27403), MR-404(P-27404), and MR-409(P-27409) (10 rats per each group). The GHRH peptide agonists were adminsistered starting 2 hours post-surgery, 1 week, 2 week, and 4 week intervals. All treatment was given subcutaneously twice daily. Cardiac performance was assessed by serial echocardiography and hemodynamic analysis derived from pressure-volume loops as described before.\nThe echocardiographic experiments are shown in FIGS. 10-15 and the results are summarized in Table 15 (results were expressed in comparison to JI-38; downward arrow denotes lower than JI-38; upward arrow denotes greater than JI-38; =denotes same as JI-38; and double arrow denotes greater effect)."}, "GHRH receptor [2]": {"molecular_target": "T1, GHRH receptor (Homo sapiens, UniProt Q02643)", "T1 sequence (Q02643 23-423)": "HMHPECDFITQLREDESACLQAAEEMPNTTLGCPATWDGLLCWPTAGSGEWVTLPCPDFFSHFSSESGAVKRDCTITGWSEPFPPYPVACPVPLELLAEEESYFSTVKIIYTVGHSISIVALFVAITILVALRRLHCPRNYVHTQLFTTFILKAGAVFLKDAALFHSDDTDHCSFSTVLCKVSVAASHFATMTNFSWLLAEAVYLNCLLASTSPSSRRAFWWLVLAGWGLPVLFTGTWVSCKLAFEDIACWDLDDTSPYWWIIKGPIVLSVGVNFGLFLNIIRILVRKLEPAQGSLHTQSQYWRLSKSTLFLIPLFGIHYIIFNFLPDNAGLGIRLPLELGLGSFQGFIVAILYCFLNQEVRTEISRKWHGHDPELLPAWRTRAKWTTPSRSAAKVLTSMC", "assay": "GHRH receptor binding, competition with 125I-labeled JV-1-42, human pituitary membrane homogenates (Table 7)", "set-up": "Normal human pituitaries were purchased from the National Hormone and Peptide Program; tissue National Hormone and Peptide Program (A.F. Parlow, Harbor-UCLA Medical Center, Torrance, Calif.); host or cells: normal human pituitary, membrane fraction", "from_the_text": "Normal human pituitaries were purchased from the National Hormone and Peptide Program (A.F. Parlow, Los Angeles, County Harbor-UCLA Medical Center, Torrance, Calif.)."}, "GHRH receptor [3]": {"molecular_target": "T1, GHRH receptor", "assay": "GHRH receptor binding, competition with 125I-labeled JV-1-42, human pituitary membrane homogenates (Table 5)", "set-up": "Normal human pituitaries were purchased from the National Hormone and Peptide Program; tissue National Hormone and Peptide Program (A.F. Parlow, Harbor-UCLA Medical Center, Torrance, Calif.); host or cells: normal human pituitary, membrane fraction", "experimental": "Normal human pituitaries were purchased from the National Hormone and Peptide Program (A.F. Parlow, Los Angeles, County Harbor-UCLA Medical Center, Torrance, Calif.). Briefly, in competitive binding analysis, ^125I-labeled JV-1-42 ([…]) was displaced by GHRH agonists at 10^−6 to 10^−12 M.\nThe final binding affinities were expressed as IC50 values and were calculated by using the LIGAND PC computerized curve-fitting program of Munson and Rodbard as modified by McPherson."}, "[4]": {"system": "myocardial infarction (Fisher-344 rats)", "assay": "Hemodynamic analysis (pressure-volume loops), body and heart weight after MI, compared to JI-38 (Example 15, Table 16)", "format": "in vivo, rat", "set-up": "key to ESP (End-Systolic Pressure) / EDP (End-Diastolic Pressure) / ESV (End-Systolic Volume) / PRSW (Preload Recruitable Stroke Work) / Ees (End-systolic Elastance) / dP/dt max (peak rate of the pressure rise) / dP/dt max_EDV / dP/dt min / TAU (relaxation time constant calculated by Weiss method) / SV (Stroke Volume) / CO (Cardiac Output) / SW (Stroke Work) / EF / Ea/Ees / Ea (arterial Elastance): ↓: downward arrow denotes lower than JI-38; ↑: upward arrow denotes greater than JI-38; =denotes same as JI-38; ⬇⬇: double arrow denotes greater effect; ⬆⬆: double arrow denotes greater effect", "details": "rat MI model, s.c. twice daily; pressure-volume loops; expressed in comparison to JI-38", "experimental": "Rats were anesthetized by intramuscular injection of a mixture of ketamine (100 mg/kg), xylazine (20 mg/kg) and acepromazine (10 mg/kg). A 2-F micromanometer tipped catheter (SPR-838, Millar Instruments, Houston, Tex.) was inserted into the right carotid artery and advanced retrograde into the left ventricle. Measurements were calibrated by injecting a hypertonic saline (15%) bolus to determine extra-ventricular conductance; relative volume units were converted to actual volume using the cuvette calibration method. All analyses were performed using PVAN 3.0 software (Millar Instruments, Houston, Tex.).\nas §1\nThe hemodynamic studies are shown in FIGS. 16-33 and the results are summarized in Table 16 (results were expressed in comparison to JI-38; downward arrow denotes lower than JI-38; upward arrow denotes greater than JI-38; =denotes same as JI-38; and double arrow denotes greater effect)."}, "GH release": {"system": "GH release", "assay": "In vivo endocrine activity, GH release after subcutaneous administration (Table 9)", "details": "rat; for GH releasing potency relative to JI-38 (=1): subcutaneous (s.c.) injection", "experimental": "Subcutaneous Administration. Adult male rats were used and anesthetized with pentobarbital (6 mg/100 g, b.w.), by i.p. injection. […] Blood samples were taken from the jugular vein 5, 15 and/or 30 minutes after the injection. The blood samples were centrifuged, plasma was removed and the GH level was measured byELISA. The results are summarized in terms of potency in Table 9."}},
  "note": "Non-standard residues stand in square brackets, D forms with d. Residues, ends and D or L forms follow the SMILES beside them. *: point of attachment. Desaminotyrosyl = O=C(CCc1ccc(O)cc1)*; Agmatine = N=C(N)NCCCCN*; Nle = CCCC[C@H](N)C(=O)O; Orn = NCCC[C@H](N)C(=O)O; Abu = CC[C@H](N)C(=O)O",
  "data": [
    {"smiles": "CCCC[C@H](NC(=O)[C@@H](NC(=O)[C@H](CC(=O)O)NC(=O)[C@H](CCC(N)=O)NC(=O)[C@H](CC(C)C)NC(=O)[C@H](CC(C)C)NC(=O)[C@H](CCCN)NC(=O)[C@H](CCCNC(=N)N)NC(=O)[C@H](C)NC(=O)[C@H](CO)NC(=O)[C@H](CC(C)C)NC(=O)[C@H](CCC(N)=O)NC(=O)[C@H](CC)NC(=O)[C@H](CC(C)C)NC(=O)[C@@H](NC(=O)[C@H](CCCN)NC(=O)[C@H](CCCNC(=N)N)NC(=O)[C@H](Cc1ccc(O)cc1)NC(=O)[C@H](CO)NC(=O)[C@H](CCC(N)=O)NC(=O)[C@@H](NC(=O)[C@H](Cc1ccccc1)NC(=O)[C@@H](NC(=O)[C@H](C)NC(=O)[C@H](CC(=O)O)NC(=O)[C@@H](C)NC(=O)CCc1ccc(O)cc1)[C@@H](C)CC)[C@@H](C)O)C(C)C)[C@@H](C)CC)C(=O)N[C@@H](CC(=O)O)C(=O)NCCCCNC(=N)N", "note": "[Peptide P-20350, [Dat^1, D-Ala^2, Gln^8, Orn^12, Abu^15, Orn^21, Nle^27, Asp^28, Agm^29]hGHRH(1-29) NH2] (Desaminotyrosyl-[dA]DAIFTQSYR[Orn]VL[Abu]QLSAR[Orn]LLQDI[Nle]D-Agmatine)", "values": [
      {"measurement": "EF: Ejection Fraction", "setting": "[1]", "value": "="},
      {"measurement": "FS: Fraction Shortening", "setting": "[1]", "value": "="},
      {"measurement": "LVEDD: Left Ventricular End Diastolic Diameter", "setting": "[1]", "value": "↓"},
      {"measurement": "LVESD: Left Ventricular End Systolic Diameter", "setting": "[1]", "value": "="},
      {"measurement": "VD: Ventricular Diastole", "setting": "[1]", "value": "="},
      {"measurement": "VS: Ventricular Systole", "setting": "[1]", "value": "="},
      {"measurement": "IC50", "setting": "GHRH receptor [2]; 125I-JV-1-42, human pituitary membranes, Table 7", "value": 0.52, "unit": "nM"},
      {"measurement": "Relative affinity (Binding potency) vs JI-38", "setting": "GHRH receptor [2]; JI-38 = 1, Table 7", "value": 8.37},
      {"measurement": "IC50", "setting": "GHRH receptor [3]; 125I-JV-1-42, human pituitary membranes, Table 5", "value": 0.04, "unit": "nM"},
      {"measurement": "Relative affinity (Binding potency) vs GHRH", "setting": "GHRH receptor [3]; GHRH(1-29) = 1, Table 5", "value": 101.5},
      {"measurement": "Relative affinity (Binding potency) vs JI-38", "setting": "GHRH receptor [3]; JI-38 = 1, Table 5", "value": 42.7},
      {"measurement": "CO (Cardiac Output)", "setting": "[4]", "value": "↑"},
      {"measurement": "EDP (End-Diastolic Pressure)", "setting": "[4]", "value": "↑"},
      {"measurement": "EF", "setting": "[4]", "value": "↑"},
      {"measurement": "ESP (End-Systolic Pressure)", "setting": "[4]", "value": "↑"},
      {"measurement": "ESV (End-Systolic Volume)", "setting": "[4]", "value": "="},
      {"measurement": "Ea (arterial Elastance)", "setting": "[4]", "value": "="},
      {"measurement": "Ea/Ees", "setting": "[4]", "value": "="},
      {"measurement": "Ees (End-systolic Elastance)", "setting": "[4]", "value": "="},
      {"measurement": "PRSW (Preload Recruitable Stroke Work)", "setting": "[4]", "value": "="},
      {"measurement": "SV (Stroke Volume)", "setting": "[4]", "value": "="},
      {"measurement": "SW (Stroke Work)", "setting": "[4]", "value": "↓"},
      {"measurement": "TAU (relaxation time constant calculated by Weiss method)", "setting": "[4]", "value": "="},
      {"measurement": "dP/dt max (peak rate of the pressure rise)", "setting": "[4]", "value": "="},
      {"measurement": "dP/dt max_EDV", "setting": "[4]", "value": "="},
      {"measurement": "dP/dt min", "setting": "[4]", "value": "="},
      {"measurement": "Stimulation of growth hormone levels after subcutaneous administration (in words)", "setting": "GH release; s.c.", "value": "stimulated greater growth hormone levels than hGHRH or JI-38"},
      {"measurement": "GH releasing potency relative to JI-38 (=1)", "setting": "GH release; 15 min after", "value": 1.53},
      {"measurement": "GH releasing potency relative to JI-38 (=1)", "setting": "GH release; 30 min after", "value": 1.17}
    ]}
  ]
}
